Measurements published in patent publication US6960687B2, “Derivatives and pharmaceutical compositions of n-hydroxyalkyl tetramethylcyclopropane-carboxamide, having anti-epiletic, neurological, and CNS activity, and method for their preparation” (priority 2002, dated 2005).

Key:
mice [1] = experiment: neurotoxicity, rotorod ataxia test; format: in vivo
Procedure: (§1) Neurotoxicity of the claimed agents was assessed in mice (ip. administration) in the rotorod ataxia test. Compound 1 was neurotoxic in some of the mice tested at doses of above 146 mg/kg ip. The PI for compound 1 at the highest stimulus intensity (44 mA) in the 6 Hz test in mice was 1.1 compared to 0.91 for VPA.

mice [2] = experiment: subcutaneous metrazole test (sc Met); format: in vivo
Text: This value is slightly lower (more efficacious) than that found for VPA in mice. The results are indicative of the compound 1 having an efficacy against absence seizures and ability to raise seizure threshold.
(§2) Compound V of the above diagram (2-hydroxyethyl-tetramethylcyclopropane-carboxamide) was screened for its ability to protect against induced convulsions in MES and scMet test. […] At the sc Met (subcutaneous metrazole) test, 3 out of 4 mice were protected following ip administration of 50 mg/kg.

mice [3] = experiment: maximal electroshock seizure test (MES); format: in vivo
Procedure: The ED50 (mice ip) in the MES model is between 150 and 300 mg/kg in mice (Table 1). This value is slightly lower than that of VPA in mice. The results are indicative of the compound 1 having an efficacy against generalized seizures and complex partial seizures that evolve into generalized motor seizures.
as §2

mice [4] = experiment: 6 Hz psychomotor seizure model; settings: for PI (6 Hz 44 mA): protective index at 44 mA stimulus; for ED50: Mus musculus, 0.25 h
[5] = tested on: animal models of epilepsy; settings: literature statement; cited from earlier work
mouse = settings: literature statement; cited from earlier work
[6] = neurotoxicity, rotorod ataxia test; format: in vivo, mice; settings: mouse, in vivo, ip
Procedure: as §1

mice [7] = settings: cited from earlier work
[8] = ip, 15 min following administration

Structure (SMILES): CC1(C)C(C(=O)NCO)C1(C)C [Compound 1, N-hydroxymethyl-tetramethylcyclopropane-carboxamide]
- Neurotoxicity TD50 (mice [1]; mice, ip, 15 min following administration): 146 mg/kg
- doses neurotoxic in some of the mice tested (mice [1]; mice, ip, rotorod ataxia test): above 146 mg/kg
- sc Met ED50 (mice [2]; [8]): 120 mg/kg
- MES ED50 (mice [3]; [8]): 150 to 300 mg/kg
- times more active compared to VPA, 6 Hz 32 mA test (mice [4]; mice, 32 mA): 1.38 times
- times more active compared to VPA, 6 Hz 44 mA test (mice [4]; mice, 44 mA): 2.31 times
- 6 Hz 22 mA ED50 (mice [4]; mice, ip, 15 min, stimulation intensity 22 mA): 75 mg/kg
- 6 Hz 32 mA ED50 (mice [4]; mice, ip, 15 min, stimulation intensity 32 mA): 91 mg/kg
- 6 Hz 44 mA ED50 (mice [4]; mice, ip, 15 min, stimulation intensity 44 mA): 134 mg/kg
- PI (6 Hz 44 mA) (mice [4]; mice, ip): 1.1

Structure (SMILES): CC1(C)C(C(=O)NCCO)C1(C)C [Compound V, 2-hydroxyethyl-tetramethylcyclopropane-carboxamide]
- behavioral impairment (neurotoxicity) (mice [1]; dose of 50 mg/kg ip): did not show any behavioral impairment
- mice protected at the sc Met test (mice [2]; ip administration of 50 mg/kg): 3 out of 4
- mice protected at the MES test (mice [3]; dose of 30 mg/kg ip): 1 out of 4

Structure (SMILES): CNC(=O)C1C(C)(C)C1(C)C [N-Methyl-tetramethylcyclopropane carboxamide]
- potency relative to VPA in animal models of epilepsy [5]: approximately 10 times
- teratogenicity (mouse): not teratogenic

Structure (SMILES): CC1(C)C(C(N)=O)C1(C)C [Tetramethylcyclopropane carboxamide, Tetramethyl-cyclopropane-carboxamide]
- teratogenicity (mouse): not teratogenic

Structure (SMILES): CCCC(CCC)C(=O)O [VPA, valproic acid, reference compound]
- TD50 at 15 min [6]: 283 mg/kg
- ED50 (mice [3]; Mus musculus, 0.25 h, ip, 15 min following administration): 271 mg/kg
- ED50 (mice [4]; ip, read-out: 6 Hz 22 mA ED50): 42 mg/kg
- ED50 (mice [4]; ip, read-out: 6 Hz 44 mA ED50): 310 mg/kg
- PI (6 Hz 44 mA) (mice [4]; mice, ip): 0.91

Structure (SMILES): CCC(C)C(CC)C(N)=O (stereo not drawn) [Valnoctamide (VCD), Valnoctamide]
- teratogenicity (mouse): non-teratogenic

Structure (SMILES): CC[C@@H](C(N)=O)N1CCCC1=O [levetiracetam]
- ED50 in 6 Hz model at 44 mA stimulus (existing antiepileptic drugs) (mice [7]): 189 mg/kg

Structure (SMILES): CCCC(C(N)=O)C(C)C (stereo not drawn) [propyl-isoproylacetamide (PID), propyl-isoproylacetamide]
- teratogenicity (mouse): non-teratogenic
